Laboratory results reported in ChEMBL document CHEMBL5260817, “Polyamine-based analogs and conjugates as antikinetoplastid agents” (Eur J Med Chem, 2017).
One block for each molecule: values may come before it.

Columns and labels:
Trypanosoma cruzi [1] = test: Antiprotozoal activity against Trypanosoma cruzi infected in mouse Peritoneal macrophage cell assessed as growth inhibition at 0.8 uM measured after 4 days relative to control; type: functional; settings: 96 h, time 4 day
Trypanosoma cruzi [2] = test: Antiprotozoal activity against Trypanosoma cruzi infected in Rhesus monkey LLC-MK2 cells; type: functional, organism-based
Trypanosoma cruzi [3] = test: Antiprotozoal activity against Trypanosoma cruzi infected in human Red blood cell; type: functional, organism-based; settings: Erythrocyte
Leishmania mexicana = test: Antiprotozoal activity against Leishmania mexicana infected in mouse J774 cells; type: functional, organism-based
Trypanosoma cruzi [4] = test: Antiprotozoal activity against Trypanosoma cruzi epimastigotes; type: functional, organism-based; settings: Trypanosoma cruzi
Leishmania braziliensis [5] = test: Antiprotozoal activity against Leishmania braziliensis promastigotes; type: functional, organism-based
Leishmania braziliensis [6] = test: Antiprotozoal activity against Leishmania braziliensis amastigotes; type: functional, organism-based
Leishmania chagasi = test: Antiprotozoal activity against Leishmania chagasi amastigotes; type: functional, organism-based
Trypanosoma cruzi [7] = test: Antiprotozoal activity against Trypanosoma cruzi amastigotes; type: functional, organism-based
Leishmania donovani [8] = test: Antiprotozoal activity against Leishmania donovani promastigote at 10 uM relative to control; type: functional
Trypanosoma cruzi [9] = test: Antiprotozoal activity against Trypanosoma cruzi amastigotes infected in mouse Peritoneal macrophage cells assessed as growth inhibition at 1.56 uM relative to control; type: functional
[10] = Inhibition of Trypanosoma cruzi Fe - Superoxide dismutase
Trypanosoma cruzi [11] = test: Antiprotozoal activity against Trypanosoma cruzi […] infected in mouse assessed as reduction in curative effect at 15 mg/kg relative to control; type: functional
Trypanosoma cruzi [12] = test: Antiprotozoal activity against Trypanosoma cruzi […] infected in African green monkey Vero cells assessed as reduction in infection measured after 72 hrs relative to control; type: functional
Trypanosoma cruzi [13] = test: Antiprotozoal activity against Trypanosoma cruzi […] measured after 72 hrs; type: functional, organism-based
KB = test: Anticancer activity against human KB cells assessed as cell growth inhibition; type: functional, cell-based
Leishmania donovani [14] = test: Antiprotozoal activity against Leishmania donovani infected in mouse macrophage cell measured after 72 hrs; type: functional, organism-based
Trypanosoma brucei [15] = test: Antiprotozoal activity against Trypanosoma brucei; type: functional, organism-based
Leishmania infantum [16] = test: Antiprotozoal activity against Leishmania infantum promastigotes measured after 5 days; type: functional, organism-based; settings: 120 h
Leishmania infantum [17] = test: Antiprotozoal activity against Leishmania infantum amastigotes measured after 5 days; type: functional, organism-based; settings: 120 h
Leishmania infantum [18] = test: Antiprotozoal activity against Leishmania infantum MHOM/MA671TMAP263 axenic amastigotes assessed as growth inhibition measured after 5 day by MTT assay; type: functional, organism-based; settings: 120 h
Leishmania infantum [19] = test: Antiprotozoal activity against Leishmania infantum MHOM/MA671TMAP263 promastigote assessed as growth inhibition measured after 5 day by MTT assay; type: functional, organism-based; settings: MHOM/MA671TMAP263, 120 h
[20] = Inhibition of Leishmania infantum TryS in presence of ATP by Malachite green staining based end-point assay
Leishmania infantum [21] = test: Antiprotozoal activity against Leishmania infantum promastigotes; type: functional, organism-based
[22] = Inhibition of Trypanosoma brucei TryS
Leishmania donovani [23] = test: Leishmanicidal activity against Leishmania donovani MHOM/PE/84/LC26; type: functional, organism-based
Leishmania infantum [24] = test: Leishmanicidal activity against Leishmania infantum MCAN/ES/2001/UCM-10; type: functional, organism-based
Leishmania braziliensis [25] = test: Leishmanicidal activity against Leishmania braziliensis MHOM/BR/1975/M2904; type: functional, organism-based
Trypanosoma brucei [26] = test: Antitrypanosomal activity against bloodstream Trypanosoma brucei assessed as parasite growth inhibition; type: functional, organism-based
Trypanosoma cruzi [27] = test: Antiprotozoal activity against Trypanosoma cruzi MG strain epimastigotes; type: functional, organism-based
Trypanosoma cruzi [28] = test: Antiprotozoal activity against Trypanosoma cruzi JEM strain epimastigotes; type: functional, organism-based
Trypanosoma cruzi [29] = test: Antiprotozoal activity against Trypanosoma cruzi CL-B5 strain epimastigotes; type: functional, organism-based
Trypanosoma cruzi [30] = test: Antiprotozoal activity against Trypanosoma cruzi CL-B5 strain amastigotes; type: functional, organism-based
MRC5 = test: Anticancer activity against human MRC5 cells assessed as cell growth inhibition measured after 24 hrs by MTT assay; type: functional, cell-based; settings: MRC5, 24 h
Trypanosoma cruzi [31] = test: Antiprotozoal activity against Trypanosoma cruzi infected in mouse Peritoneal macrophage cell assessed as growth inhibition at 1.6 uM measured after 4 days relative to control; type: functional; settings: 96 h, time 4 day
[32] = Inhibition of TryR (unknown origin) assessed as inhibition constant; parameters: species or system Bacteria
[33] = Inhibition of TryR (unknown origin) assessed as inhibition constant by FRET assay
Trypanosoma cruzi [34] = test: Antiprotozoal activity against Trypanosoma cruzi infected in mouse assessed as survival rate at 10 mg/kg, po administered 3 times daily on day 6 and 7 then twice daily from day 8 to 12; type: functional; settings: time 7 day
Leishmania amazonensis = test: Antiprotozoal activity against Leishmania amazonensis PH8 strain […] assessed as […] at 10 ug/ml relative to control; type: functional; settings: dose 10 µg/ml
Leishmania braziliensis [35] = test: Antiprotozoal activity against Leishmania braziliensis 2903 strain […] assessed as […] at 10 ug/ml relative to control; type: functional; settings: dose 10 µg/ml
Leishmania donovani [36] = test: Antiprotozoal activity against Leishmania donovani PP75 strain […] assessed as […] at 10 ug/ml relative to control; type: functional; settings: dose 10 µg/ml
Leishmania donovani [37] = test: Antiprotozoal activity against Leishmania donovani LV9 strain amastigotes; type: functional, organism-based
Trypanothione reductase = Trypanothione reductase (Crithidia fasciculata, UniProt P39040); test: Inhibition of Crithidia fasciculata TryR overexpressed in escherichia coli assessed as inhibition constant
[38] = Inhibition of Trypanosoma cruzi recombinant N-terminal His-tag TryS in presence of ATP
[39] = Inhibition of Leishmania infantum recombinant N-terminal His-tag TryS in presence of ATP
[40] = Inhibition of Trypanosoma brucei recombinant N-terminal His-tag TryS in presence of ATP

Trypanothione reductase, sequence (P39040 whole entry): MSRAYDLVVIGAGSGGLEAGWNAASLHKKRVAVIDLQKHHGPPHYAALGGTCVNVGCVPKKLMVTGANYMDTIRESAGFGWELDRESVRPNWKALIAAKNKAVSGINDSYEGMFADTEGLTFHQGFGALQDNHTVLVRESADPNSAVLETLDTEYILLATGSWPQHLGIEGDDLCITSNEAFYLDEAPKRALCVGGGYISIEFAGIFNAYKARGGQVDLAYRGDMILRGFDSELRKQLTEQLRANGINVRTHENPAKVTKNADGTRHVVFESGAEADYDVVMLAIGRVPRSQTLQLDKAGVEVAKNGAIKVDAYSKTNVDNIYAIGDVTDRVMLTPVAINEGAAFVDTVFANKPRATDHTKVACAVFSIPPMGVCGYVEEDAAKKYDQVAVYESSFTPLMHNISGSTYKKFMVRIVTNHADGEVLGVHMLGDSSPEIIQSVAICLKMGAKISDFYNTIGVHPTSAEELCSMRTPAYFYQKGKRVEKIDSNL

SMILES: Clc1ccc(Sc2ccccc2)c(CNCCCN2CCN(CCCNCc3cc(Cl)ccc3Sc3ccccc3)CC2)c1
inhibition at 0.8 µM (Trypanosoma cruzi [1]): 90%

SMILES: CC(C)=CCC/C(C)=C/CNCCNC1C2CC3CC(C2)CC1C3 (stereo unspecified) [SQ109]
IC50 (Trypanosoma cruzi [2]): 0.5 µM
IC50 (Trypanosoma cruzi [3]): 80 µM
IC50 (Leishmania mexicana): 0.01 µM

SMILES: COc1ccc2nc3cc(Cl)ccc3c(NCCCCCCCCNc3c4ccc(Cl)cc4nc4ccc(OC)cc34)c2c1
inhibition at 10 µM (Leishmania donovani [8]): 99%
inhibition at 1.56 µM (Trypanosoma cruzi [9]): 70%

SMILES: O=C(O)CCCCCN1CSC(=S)N(CCCCCCN2CN(CCCCCC(=O)O)CSC2=S)C1
IC50 (KB): 16.1 µM
IC50 (Leishmania donovani [14]): 6.74 µM
IC50 (Trypanosoma brucei [15]): 0.36 µM

SMILES: O=C1c2cccc3cccc(c23)C(=O)N1CCCNCCCNCCCCNCCCNCCCN1C(=O)c2cccc3cccc(c23)C1=O
IC50 (Leishmania infantum [18]): 12.3 µM
IC50 (Leishmania infantum [19]): 7.56 µM

SMILES: CN(CCCNc1c(NCCC[N+](C)(C)C)c(=O)c1=O)CCCNc1c(NCCC[N+](C)(C)C)c(=O)c1=O
IC50 (Leishmania donovani [23]): > 15 µM
IC50 (Leishmania infantum [24]): > 15 µM
IC50 (Leishmania braziliensis [25]): > 15 µM

SMILES: CCCCCCCCCCCCCCC(CN)NC(=O)OC(C)(C)C (stereo unspecified)
IC50 (Trypanosoma cruzi [27]): 10 µM
IC50 (Trypanosoma cruzi [28]): 10 µM
IC50 (Trypanosoma cruzi [29]): 2 µM
IC50 (Trypanosoma cruzi [30]): 2 µM

SMILES: Clc1ccc(CNCCCN2CCN(CCCNCc3ccc(Cl)cc3)CC2)cc1
IC50 (MRC5): 4.5 µM
inhibition at 1.6 µM (Trypanosoma cruzi [31]): 95%

SMILES: CN(C)CCCN1CCN(C(=O)Cc2ccccc2)CC1
Activity (Trypanosoma cruzi [34]): 90%

The next lines start with results.

IC50 (Trypanosoma cruzi [4]): 10 µM
IC50 (Leishmania braziliensis [5]): 10 µM
IC50 (Leishmania braziliensis [6]): 10 µM
IC50 (Leishmania chagasi): 10 µM
IC50 (Trypanosoma cruzi [7]): 10 µM
SMILES: CCCCCCCCCCNCCCCCCN

IC50 [10]: 18 µM
IC50 (Trypanosoma cruzi [13]): 7 µM
SMILES: c1ccc(CN2CCN(Cc3ccccn3)CCN(Cc3ccccn3)CC2)nc1
inhibition in vivo at 15 mg/kg (Trypanosoma cruzi [11]): 33%
inhibition (INH) (Trypanosoma cruzi [12]): 81%

IC50 (Leishmania infantum [16]): 1 µM
IC50 (Leishmania infantum [17]): 1 µM
SMILES: O=C1c2cccc3cccc(c23)C(=O)N1CCCNCCCCNCCCN1C(=O)c2cccc3cccc(c23)C1=O

IC50 [20]: 0.35 µM
IC50 (Leishmania infantum [21]): 112 µM
SMILES: CNCCNC(=O)CN1C(=O)Cc2c([nH]c3ccc(C(F)(F)F)cc23)-c2ccccc21
IC50 [22]: 75 µM

IC50 (Trypanosoma brucei [26]): 24 µM
SMILES: Nc1nc(N)nc(NCCCNCCCCCCCNCCCNCCCNc2nc(N)nc(N)n2)n1

Ki [32]: 0.75 µM
Ki [33]: 0.75 µM
SMILES: O=C(NCCCNCCCCNCCCNC(=O)c1cnc2cc(C(F)(F)F)ccc2c1O)c1cnc2cc(C(F)(F)F)ccc2c1O

IC50 (Leishmania donovani [37]): 4 µM
SMILES: CCN(CC)CCCCCCNc1cc(OC)cc2c(C)ccnc12 [SITAMAQUINE]
Activity (Leishmania amazonensis): 80%
Activity (Leishmania braziliensis [35]): 80%
Activity (Leishmania donovani [36]): 80%

Ki (Trypanothione reductase): 85 µM
SMILES: NCCCNCCCCNCCCNC(=O)CCc1ccc(O)c(O)c1

IC50 [39]: 30 µM
SMILES: CC(C)c1ccc(CNCCCCCCCCCCNCc2ccc(C(C)C)cc2)cc1
IC50 [38]: 30 µM
IC50 [40]: 30 µM
